Data taken from patent US20240368183A1, “Macrocyclic Compounds Having ENT1 Inhibiting Activity” (iTeos Belgium SA, priority 2021, published 2024).
Read-outs that look alike come from different tables or passages of the source.

Assays:
human ENT1 = biological target: T1, human ENT1 (Homo sapiens, UniProt Q99808); test: ENT1 binding assay (competition with Sahenta-DY647); settings: JAR cells expressing ENT1; competition with Sahenta-DY647 (100 nM); 4° C.
T1 construct: JAR cells expressing ENT1 were bought from ATCC® (HTB-144TM); host or cells: JAR cells (human choriocarcinoma line, own knowledge)
T1 sequence (Q99808 1-456): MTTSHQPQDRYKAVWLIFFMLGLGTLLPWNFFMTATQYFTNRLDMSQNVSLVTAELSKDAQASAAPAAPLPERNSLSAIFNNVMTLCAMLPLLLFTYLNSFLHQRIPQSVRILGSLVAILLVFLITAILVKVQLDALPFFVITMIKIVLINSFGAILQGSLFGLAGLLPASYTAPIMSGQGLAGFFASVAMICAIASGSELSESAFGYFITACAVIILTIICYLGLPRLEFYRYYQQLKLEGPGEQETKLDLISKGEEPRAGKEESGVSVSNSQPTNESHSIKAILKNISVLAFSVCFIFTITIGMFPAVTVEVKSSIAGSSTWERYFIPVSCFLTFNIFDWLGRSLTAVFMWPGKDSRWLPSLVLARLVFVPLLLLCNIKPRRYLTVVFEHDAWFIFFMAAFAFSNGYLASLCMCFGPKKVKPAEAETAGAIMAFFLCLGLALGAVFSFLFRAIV
Method: The present assay aims at showing that the compounds of the present disclosure can bind to human ENT1. The principle of the assay is a competition between the compounds of this present disclosure and Sahenta-DY647, an ENT1 inhibitor that emits fluorescence (Ex=630 nm, Em=670 nm). By measuring the fluorescence at the end of the assay we could assess the binding potency of the compounds of the present disclosure.
JAR cells expressing ENT1 were bought from ATCC® (HTB-144TM). Cells were cultured in RPMI 1640 medium (LONZA®, #BE12-702F/U1) supplemented with 10% FBS (GIBCO®, #10270-106), 10 mM Hepes (LONZA®, #BE17-737E), 1 mM Sodium Pyruvate (LONZA®, #BE13-115E) and 2% Penicillin/Streptomycin (LONZA®, #DE17-603E) at 37° C. and 5% CO2. The assay was conducted on the following buffer: HBSS (LONZA®, #LO-527F) supplemented with 10 mM Hepes (LONZA®, #BE17-737E) and 0.1% BSA (Miltenyi®, #130-091-376) on the day of the assay.
JAR cells were resuspended in the described buffer. Compounds of the present disclosure and Sahenta-DY647 were diluted 200× in the described buffer.
A total of 50 000 cells were pre-incubated for 30 min at 4° C. with the compounds of the present disclosure before adding the corresponded IC90 of Sahenta-DY647 (100 nM) and incubate once more for 30 min at 4° C. The total volume of the reaction was 100 μL (50 μL of cells, 25 μL of the compounds of the present disclosure and 25 μL of Sahenta-DY647) in a 96 well plate, U-bottom (Greiner®, #650-180). The plates were washed 2× by centrifugation (4 min, 400 rcf at 4° C.) in the same buffer. Cells were re-suspended in 70 μL of the buffer and 50 μL was transferred to a Black 384 Optiplate (PerkinElmer®, #6007279). Fluorescence (Ex=630 nm, Em=670 nm) was acquired on a Spectramax i3x (Molecular Devices®).

[1] = tested on: stimulated primary human T cells; test: T cell proliferation assay (rescue of proliferation in the presence of ATP); assay type: cell-based
Method: The aim of this study was to determine the potency of equilibrative nucleoside transporter 1 (ENT1) inhibitors to rescue proliferation by stimulated primary human T cells incubated in the presence of 100 uM Adenosine triphosphate (ATP), in baseline conditions (condition A) or in the presence of various proteins known to bind small molecules (condition B)
Condition B: X-VIVO15, 2% Human Serum Albumine (HSA) and 0.1% α-1-Acid Glycoprotein (AAG)
Cryopreserved purified human CD3+ T cells were thawed and washed twice with RPMI1640 medium, UltraGlutamine containing 10% hiFBS.
Cells were suspended in PBS containing 10% hiFBS. Cells were stained with CFSE by adding 2 μM solution in PBS, to get a final 1 μM CFSE solution. Cells were incubated while rotating for 5 minutes. Reaction was stopped by adding PBS with 10% FBS and cells were centrifuged for 5 minutes at 1500 rpm.
Cells were resuspended at 1.6×10^6 cells/mL, either in X-VIVO15 medium or in 4% Human Serum Albumin and 0.2% α-1-Acid Glycoprotein. 50 μL of cell suspension (8×10^4 T cells) was added to wells of sterile round-bottom 96-well plates. Cells were activated by adding 50 μL of anti-CD3 anti-CD28 coated microbeads, suspended either in XVIVO-15 medium or in 4% HSA and 0.2% α-1-Acid Glycoprotein, at a ratio of one microbead per two cells.
Serial dilutions of the ENT1 inhibitors were prepared in X-VIVO15 from 10 mM stock solutions in DMSO, and 50 μL was added to the wells.
ATP powder was diluted in X-VIVO15, and 50 μL of this compound was added to the wells to reach a final assay concentration of 100 μM. Final volume of 200 μL.
The experiments were also performed in 384 well plates—all volumes reduced by a factor of 4 (12.5 μL) with a final volume of 50 μL.
Experiments were performed in duplicate. The cells were placed in a 37° C. humidified tissue culture incubator with 5% CO2 for 72 hours for 96 well plates, 96 hours for 384 well plates After 72 or 96 hours, proliferation was measured determined by CFSE dilution via flow cytometry.

[2] = Condition B: X-VIVO15, 2% Human Serum Albumine (HSA) and 0.1% α-1-Acid Glycoprotein (AAG), 100 μM ATP, read-out: (2) T Cell proliferation (Condition B) IC50
[3] = Homo sapiens, Condition A: X-VIVO15, 100 μM ATP, read-out: T Cell proliferation (Condition A) IC50

Row | Compound | IC50 (human ENT1) | IC50 [1, 2] | IC50 [1, 3]
1 | COc1cc2cc(c1OC)OCCCC(n1ncc(-c3ccccc3)n1)CCN1CCCN(CCCOC2=O)CC1 (stereo not drawn) [Compound 28] | 1 to 20 nM | 20 to 500 nM | < 1 nM
2 | COc1cc(C(=O)OC2CCCOc3cc(cc(OC)c3OC)C(=O)NCCN3CCCN(CC2)CC3)cc(OC)c1OC (stereo not drawn) [Compound 19] | 1 to 20 nM | 20 to 500 nM | < 1 nM
3 | COc1cc(C(=O)O[C@@H]2CCCOc3cc(cc(OC)c3OC)COCCCN3CCCN(CC2)CC3)cc(OC)c1OC (single isomer, unassigned) [Compound 4] | 1 to 20 nM | < 1 nM | < 0.1 nM
4 | COc1cc(C(=O)OC2CCCOc3cc(cc(OC)c3OC)COCCCN3CCCN(CC2)CC3)cc(OC)c1OC (racemic) [Compound 3] | < 1 nM | < 1 nM | < 0.1 nM
5 | COc1cc2cc(c1OC)OCCCC(Oc1nccc3ccccc13)CCN1CCCN(CCCOC2=O)CC1 (stereo not drawn) [Compound 23] | 1 to 20 nM | 20 to 500 nM | 1 to 20 nM
6 | COc1cc(OC)cc(C(=O)OC2CCCOc3cc(cc(OC)c3OC)C(=O)OCCCN3CCCN(CC2)CC3)c1 (stereo not drawn) [Compound 15] | 1 to 20 nM | 1 to 20 nM | < 1 nM
7 | COc1cc(C(=O)OC2CCCOc3cc(cc(OC)c3OC)-c3cn(nn3)CCCN3CCCN(CC2)CC3)cc(OC)c1OC (stereo not drawn) [Compound 37] | 1 to 20 nM | 20 to 500 nM | < 1 nM
8 | COc1cc2cc(c1OC)OCCCC(Oc1nncc3ccccc13)CCN1CCCN(CCCOC2=O)CC1 (stereo not drawn) [Compound 24] | 1 to 20 nM | 20 to 500 nM | < 0.1 nM
9 | COc1cc2cc(c1OC)OCCCC(OC(=O)c1cc(C)nn1C)CCN1CCCN(CCCOC2=O)CC1 (stereo not drawn) [Compound 12] | 1 to 20 nM | 1 to 20 nM | < 1 nM
10 | COc1cc(C(=O)OC2CCCOc3cc(cc(Cl)c3Cl)C(=O)NCCCN3CCCN(CC2)CC3)cc(OC)c1OC (stereo not drawn) [Compound 33] | 20 to 500 nM | > 500 nM | 1 to 20 nM
